Experiments:
Inclusion action = type: physicochemical
Protocol: To 100 g of the aqueous solution was added 2 g of methanol, 3 g of ethanol, or 4.6 g acetic acid to be included by the cyclotetrasaccharide. Thereafter, each of the resulting solutions was filtered to remove non-included products, and the filtrate was dried in vacuo. As a control, similar inclusion products were prepared by using “ISOELITE™ P”, a branched cyclodextrin commercialized by Maruha K.K., Tokyo, Japan, which were known to have inclusion ability.
To measure the amount of the inclusion products in the resulting lyophilized powders, one gram of each powder was dissolved in five milliliters water and extracted after admixing with five milliliters of diethylether. The extraction was repeated, and the resulting extracts were quantified on gas chromatography.

[1] = system: Eubacterium aerofaciens ATCC 25986; assay: Assimilation test, Eubacterium aerofaciens; type: cell-based; conditions: PYF medium with 0.5% saccharide, 37° C., four days, anaerobic
[2] = Thermostability of aqueous cyclotetrasaccharide solution; type: physicochemical; conditions: 10% (w/v) aqueous solution, 120° C.; for Purity (%) after heating: HPLC
Protocol: After the heating, the aqueous solution was cooled under atmospheric conditions and measured for coloration degree and determined for purity on HPLC. The coloration degree was evaluated based on the absorbance in a cell with a 1-cm light pass at a wavelength of 480 nm.

[3] = system: internal content of rat cecum; assay: Fermentation test by internal content of rat cecum; type: in vitro ADME
Protocol: The internal content of rat cecum was collected by anesthetizing a Wister male rat with ether, allowing the rat to die, collecting the internal content under anaerobic conditions, and suspending the resultant with 4-fold volumes of a 0.1 M aqueous solution of sodium bicarbonate. Cyclotetrasaccharide was added in an amount of about 7% by weight to the internal content of rat cecum, and the contents of cyclotetrasaccharide still remained just after and 12 hours after the addition of the internal content was quantified on gas chromatography. As a result, the contents of cyclotetrasaccharide of the former and latter were respectively 68.0 mg and 63.0 mg per one gram of the internal content of rat cecum.

Amylopsin = target: T1, Amylopsin (Homo sapiens, UniProt P04746); assay: Digestion test in vitro, amylopsin
T1 sequence (P04746 16-511): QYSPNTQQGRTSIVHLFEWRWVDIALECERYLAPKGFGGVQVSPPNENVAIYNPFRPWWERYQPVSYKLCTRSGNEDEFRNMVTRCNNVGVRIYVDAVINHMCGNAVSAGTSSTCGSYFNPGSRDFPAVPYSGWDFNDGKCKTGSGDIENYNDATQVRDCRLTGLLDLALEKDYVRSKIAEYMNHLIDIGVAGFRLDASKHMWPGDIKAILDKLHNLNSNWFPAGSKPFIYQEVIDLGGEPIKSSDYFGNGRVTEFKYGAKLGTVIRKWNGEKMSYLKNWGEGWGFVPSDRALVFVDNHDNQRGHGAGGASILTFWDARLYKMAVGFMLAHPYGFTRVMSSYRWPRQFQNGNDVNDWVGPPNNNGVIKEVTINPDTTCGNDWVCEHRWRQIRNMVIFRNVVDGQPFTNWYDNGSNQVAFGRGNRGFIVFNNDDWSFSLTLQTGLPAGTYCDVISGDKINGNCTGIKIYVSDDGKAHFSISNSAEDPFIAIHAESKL

[4] = system: α-isomaltosylglucosaccharide-forming enzyme; assay: Action on saccharides (substrates), Enzyme of Strain A19; type: biochemical, Arthrobacter globiformis A19; design: key: −: it showed no change; +: it showed a slight reduction of the color spot of the substrate and the formation of other reaction product; ++: it showed a high reduction of the color spot of the substrate and the formation of other reaction product; +++: it showed a substantial disappearance of the substrate spot and the formation of other reaction product; conditions: two units/g substrate, substrate 2% (w/v), 30° C., pH 8.4, 24 hours, TLC
Summary of the method: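 Purified enzyme from each strain was added at 2 units/g substrate to each of 24 saccharides at 2% (w/v). Incubation ran 24 h at 30° C, pH 6.0, or pH 8.4 for the A19 enzyme. TLC compared reaction mixtures before and after incubation to show whether each substrate was acted on.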

Structure (SMILES)	inclusion ability relative to that of the branched cyclodextrin (Inclusion action; by weight)	Inclusion amount (mg/g lyophilized powder) (Inclusion action; inclusion product Acetic acid)	Inclusion amount (mg/g lyophilized powder) (Inclusion action; inclusion product Ethanol)	Inclusion amount (mg/g lyophilized powder) (Inclusion action; inclusion product Methanol)	Assimilability [1]	Coloration degree (A480 nm) ([2]; heating time 0 min)	Purity (%) after heating ([2]; heating time 0 min) [%]	Coloration degree (A480 nm) ([2]; heating time 30 min)	Purity (%) after heating ([2]; heating time 30 min) [%]	Coloration degree (A480 nm) ([2]; heating time 60 min)	Purity (%) after heating ([2]; heating time 60 min) [%]	Coloration degree (A480 nm) ([2]; heating time 90 min)	Purity (%) after heating ([2]; heating time 90 min) [%]	content of cyclotetrasaccharide remained ([3]; 12 hours after the addition)	content of cyclotetrasaccharide remained ([3]; just after the addition, about 7% by weight added)	Decomposition percentage (%) by digestive enzyme (Amylopsin) [%]	Enzymatic action, Enzyme of Strain A19 [4]
OCC1OC2OCC3O[C@H](O[C@H]4C(O)C(CO)OC(OCC5O[C@H](O[C@@H](C1O)C2O)C(O)C(O)[C@@H]5O)C4O)C(O)C(O)[C@@H]3O (stereo partly drawn) [Cyclotetrasaccharide, cyclo{→6)-α-D-glucopyranosyl-(1→3)-α-D-glucopyranosyl-(1→6)-α-D-glucopyranosyl-(1→3)-α-D-glucopyransoyl-(1→}]	about 2 folds	67.74	17.26	6.71	− (judged negative (−) when the post culture had a pH of 6.0 or higher)	0.00	100	0.00	100	0.00	100	0.00	100	63.0 mg per one gram of the internal content of rat cecum	68.0 mg per one gram of the internal content of rat cecum		
OC[C@@H](O)[C@@H](O[C@H]1O[C@H](CO)[C@@H](O)[C@H](O)[C@H]1O)[C@H](O)[C@@H](O)CO [Maltitol, reference compound]																0.0	−

— patent US7811797B2, “α-isomaltosylglucosaccharide-forming enzyme, process and uses of the same” (Kabushiki Kaisha Hayashibara Seibutsu Kagaku Kenkyujo, priority 2000, dated 2010)
